Patent US9029414B2, “Triterpenoid compounds and methods of use thereof” (Biotechnology Research Corporation, priority 2008, dated 2015)

Legend:
[1] = target: FP receptor (Homo sapiens, UniProt P43088); assay: Radioligand competition binding assay, FP; conditions: target PGF, compound at 10 μM in duplicate, read-out: % inhibition of control specific binding
Method: (§1) DA001 was further evaluated against 32 receptor binding assays. Radioligand competition assays were conducted whereby DA001 was tested at one concentration (10 uM) in duplicate. […] It could compete with the radioligand [^3H] PGE2 binding at the EP1 and EP4 receptors, and weakly competed with the EP2 and FP receptors.
(§2) To determine the targets of DA compounds, the compound was assessed in binding assays for the family of prostanoid receptors. Both compounds were tested at a single concentration (10 μM) in duplicate. DA001 and DA021 inhibit the ligand binding of prostaglandin E2 receptors EP1, EP2 and EP4 and moderately to prostaglandin (PGF) to its receptor (FP), but not prostaglandin I (PGI2), thromoboxane A and prostaglandin D2 to their receptors.

[2] = target: T1, EP1 receptor (Homo sapiens, UniProt P34995); assay: Cellular receptor functional assay (cAMP), EP1; assay type: cell-based; design: expressed in transfected cells; host or cells: CHO cells; conditions: for Antagonist effect, cAMP measurement: in presence of PGE2
T1 sequence (P34995 1-402): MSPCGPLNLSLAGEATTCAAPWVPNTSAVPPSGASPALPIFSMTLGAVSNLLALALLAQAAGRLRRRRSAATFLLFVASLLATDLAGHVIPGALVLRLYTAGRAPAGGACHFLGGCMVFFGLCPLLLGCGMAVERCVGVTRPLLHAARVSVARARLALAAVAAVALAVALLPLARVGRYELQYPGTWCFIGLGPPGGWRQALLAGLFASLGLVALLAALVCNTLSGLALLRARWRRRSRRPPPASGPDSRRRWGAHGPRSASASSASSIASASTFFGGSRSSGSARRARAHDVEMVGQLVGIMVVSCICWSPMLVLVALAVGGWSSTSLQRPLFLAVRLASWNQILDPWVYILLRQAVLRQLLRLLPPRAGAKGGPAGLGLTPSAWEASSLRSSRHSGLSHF
Method: To determine whether the inhibitory effect of DA001 on the ligand binding to EP receptors results from agonist or antagonist activity, DA001 was evaluated at a single concentration (10 μM) on cellular-specific receptor functional assays. Upon ligand binding, the EP receptors are activated which leads to an increase in intracellular cyclic AMP.
DA001 (10 μM) was subjected to ligand binding assay with the human EP1 or EP4 receptor over-expressing CHO cells. Results are expressed as a percent of control specific agonist response [100-(measured specific response/control specific agonist response)×100] obtained in the presence of DA001.
DA021 inhibits PGE2 ligand binding to EP1, EP2 and EP4 receptors. To determine whether the inhibitory effect is due to agonist or antagonist activity, DA021 was evaluated and compared at 1 concentration (30 uM) in cellular assays assessing receptor function. Upon ligand binding, the EP receptors are activated which leads to an increase in intracellular cyclic AMP.

[3] = target: EP2 receptor (Homo sapiens, UniProt P43116); assay: Radioligand competition binding assay, EP2; conditions: EP2, target PGE2; compound at 10 μM in duplicate; read-out: % inhibition of control specific binding
EP2 receptor, sequence (P43116 whole entry): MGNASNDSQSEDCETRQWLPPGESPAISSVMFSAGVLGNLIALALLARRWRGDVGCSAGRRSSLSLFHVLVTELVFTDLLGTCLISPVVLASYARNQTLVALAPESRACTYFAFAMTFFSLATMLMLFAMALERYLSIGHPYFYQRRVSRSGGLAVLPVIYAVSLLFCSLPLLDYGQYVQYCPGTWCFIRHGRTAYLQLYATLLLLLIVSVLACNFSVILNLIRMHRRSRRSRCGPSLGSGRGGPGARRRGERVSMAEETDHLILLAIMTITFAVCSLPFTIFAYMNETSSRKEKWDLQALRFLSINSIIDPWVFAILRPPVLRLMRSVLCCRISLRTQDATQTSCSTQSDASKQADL
Method: as §1, §2

[4] = tested on: cortical neurons; assay: Cortical neuron survival assay against NMDA excitotoxicity (LDH); assay type: cell-based, Sprague-Dawley rats; conditions: 30 μM 24 hrs, NMDA 10-200 μM 20 min; at high concentrations of NMDA
Method: FIG. 12. Derivatives of DA001 rescue the cortical neurons from NMDA excitotoxicity. Cortical neurons were treated with compounds derived from of DA001 (30 μM) 24 hours prior to NMDA treatment. LDH released into the medium were measured 24 hours after NMDA treatment. Data are expressed as mean±s.e.m. and compared to solvent control (DMSO). *=P<0.05.
Hippocampal neurons/cortical neurons were prepared from embryonic day 18 Sprague-Dawley rats. […] Afterwards, cells were incubated in growth medium for 18-24 hours and detected with Cytotoxicity Detection Kit (1644793, Roche).
Cortical neurons were treated with DA021 or DA034 and subsequently subjected to varying concentrations of NMDA. […] LDH release into the medium was then measured.
Compounds with strong protective effect (>80% survival) against NMDA excitotoxicity are prototype DA001, derivatives DA010, DA021, DA034, DA040, DA081 and DA088. […] LDH released into the medium were measured 24 hours after NMDA treatment. Data are expressed as averaged percentage of cell survival (±s.e.m) calculated against solvent control (DMSO) and compared to no NMDA control (set as 100% survival). […]

FP receptor, sequence (P43088 whole entry): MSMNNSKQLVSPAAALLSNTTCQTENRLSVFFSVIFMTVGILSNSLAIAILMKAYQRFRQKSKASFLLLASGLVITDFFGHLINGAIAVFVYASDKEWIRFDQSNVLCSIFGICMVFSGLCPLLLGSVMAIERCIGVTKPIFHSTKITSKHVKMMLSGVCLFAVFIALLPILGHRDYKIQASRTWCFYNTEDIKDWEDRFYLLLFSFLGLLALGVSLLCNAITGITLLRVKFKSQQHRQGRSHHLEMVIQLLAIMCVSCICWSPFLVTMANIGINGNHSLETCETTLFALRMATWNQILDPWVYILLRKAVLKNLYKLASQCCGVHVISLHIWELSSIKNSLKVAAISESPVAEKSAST

C=C(C)[C@@H]1CC[C@]2(C(=O)O)CC[C@]3(C)C(CC[C@@H]4[C@@]5(C)CC[C@H](O[C@@H]6OC[C@H](O)[C@H](O)[C@H]6O[C@@H]6O[C@@H](C)[C@H](O)[C@@H](O)[C@H]6O)[C@@](C)(CO)[C@@H]5CC[C@]43C)[C@@H]12 (stereo partly drawn) [DA001, 3-O-[α-L-rhamnopyranosyl-(1→2)-α-L-arabinopyranosyl]-3,23-dihydroxy-20(29)-lupen-28-oic acid]
inhibition at 10 µM [1]: 27% | Antagonist effect, cAMP measurement ([2]; 10 μM): 38% | Agonist effect, cAMP measurement ([2]; 10 μM, percent of control specific agonist response): 8.1% | inhibition at 10 µM [3]: 31%

C=C(C)[C@@H]1CC[C@]2(/C=N/O)CC[C@]3(C)C(CCC4[C@@]5(C)CCC(=O)[C@@](C)(CO)[C@@H]5CC[C@]43C)C12 (stereo partly shown) [DA021]
inhibition at 10 µM [1]: 52% | cell death (LDH release) vs DMSO control [4]: significant reduction in cell death | Agonist effect, cAMP measurement ([2]; 30 uM): 9 | Antagonist effect, cAMP measurement ([2]; 30 uM): 87 | inhibition at 10 µM [3]: 42%

CC(=O)OC[C@]12CC[C@@H](C3(C)CO3)C1C1CCC3[C@@]4(C)CC[C@H](O)[C@@](C)(CO)[C@@H]4CC[C@@]3(C)[C@]1(C)CC2 (stereo partly shown) [DA034]
cell death (LDH release) vs DMSO control [4]: significant reduction in cell death
